Key:
ID1 [1] = molecular target: T1, ID1 (Homo sapiens, UniProt P41134); test: Western blot for ID1 in HUVECs; type: cell-based; set-up: host or cells: HUVEC; settings: 0-40 μM, 24 hours
T1 sequence (P41134 1-155): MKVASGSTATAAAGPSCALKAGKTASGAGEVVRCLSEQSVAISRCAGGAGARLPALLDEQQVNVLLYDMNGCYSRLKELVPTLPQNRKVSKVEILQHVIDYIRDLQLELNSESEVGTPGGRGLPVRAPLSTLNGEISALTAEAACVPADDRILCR
Description: Immunoblotting. For immunoblotting, cells were collected by trypsinization, washed with PBS and lysed in homogenization buffer (0.3 M sucrose, 10 mM Tris (pH 8.0), 400 mM sodium chloride, 3 mM magnesium chloride, 0.5% NP40/IGEPAL, 100 μg/mL Aprotinin+Protease inhibitor cocktail (Roche #11 836 153 001). Proteins were separated by SDS-PAGE, transferred to a membrane (LI-COR), probed with primary antibodies overnight at 4° C., and probed with secondary antibodies (LI-COR) for 1-2 hours at room temperature. Proteins were visualized using the LI-COR Odyssey Infrared Imaging detection system. The following primary antibodies were used Id1, Id2, Id3, Id4 (195-14, 9-2-8, 17-3, 82-12, respectively, all from Biocheck), Cyclin D1 (2978, Cell Signaling), Actin (A2066, Sigma), Tubulin (T4026, Sigma). Western blot quantification was carried out using channel 700 and channel 800 intensity data from Odyssey application software version 3.0.30 (LI-COR), subtracting blank values and normalizing to Tubulin.
The activity of AGX51 was tested on primary human umbilical vein endothelial cells (HUVECs) and the HCT116 colorectal cancer cell line, two cell types with different ID1-4 expression profiles. […] The effects of AGX51 on ID3 loss in HUVECs was diminished in the 20-40 μM range compared with ID1, consistent with the weaker perturbation observed in the CD spectra.

[2] = test system: retinal neovascularization; test: Retinopathy of prematurity (ROP) model; type: in vivo, mouse; settings: intraocular injection 10 μg at P12, assessed P17, p<0.01
Description: In the ROP experiment 26 C57BL/6 pups, 36 Id^−/− and 22 Id3^−/− pups were place in 75% O2 at P7. On P12 the mice were returned to room air and at P17 they were euthanized and retinal neovascularization was measured as described above. In the AGX51 ROP experiment, C57BL/6 pups were place in 75% O2 at P7. On P12 the mice were returned to room air and injected in the eye with 10 μg AGX51 or DMSO in the FE (N=15 mice/group). On P17 they were euthanized and retinal neovascularization was measured as described above. Retinal neovascularization pathology can also be studied in mouse models of retinopathy of prematurity (ROP). In this model, post-natal day (P) 7 mice are placed in a 75% O2 chamber, which causes retinal capillary depletion. At P12, the mice are returned to room air, which leads to the development of retinal ischemia and proliferative vascular disease in the retinal vasculature. When this model was applied to Id1 or Id3 knockout mice, a significant decrease in retinal neovascularization was observed (p<0.0001) compared to wild type mice (FIG. 1C).

E protein binding = test: EMSA on whole cell lysates from HCT116 cells; type: cell-based; settings: 24 hours treatment
Description: Electrophoretic mobility shift assays. To test the activity of compounds identified in the in silico screen, full-length E47 was purified from bacteria and mixed with a P^32 labeled E-box sequence derived from the muscle creatine kinase (MCK) enhancer, BSA, DTT, poly dI-dC, salmon sperm, and HeLa nuclear extract, in the presence or absence of purified full-length Id1. Increasing concentrations of the various test compounds dissolved in DMSO or DMSO alone were added to the reaction mixes for 30 minutes, resolved on a 5% non-denaturing polyacrylamide gel, and autoradiographed. Electrophoretic mobility shift assays (EMSAs) were carried out on whole cell lysates from AGX51-treated cells and the EMSA was performed as described previously (Tournay and Benezra, Mol Cell Biol, 16: 2418-30 (1996)).
Without being bound by theory, it was hypothesized that loss of Id proteins in response to AGX51 should result in an increase in E protein binding activity assuming little interference of the compound with the E proteins themselves. […] To determine if loss of Id activity precedes Id protein loss, EMSAs were carried out using cell lysates from HCT116 cells treated with AGX51 for one hour.

[3] = test system: new blood vessel formation; test: Matrigel plug anti-angiogenic assay; type: in vivo, mouse; settings: in plugs 25 μg/mg or daily ip 30 or 100 mg/kg, 10 days
Description: VEGF-165 and FGF-2 treated Matrigel plugs will be implanted on Day 0 into C57BL/6 mice. Mice will be treated with either vehicle, AGX51, or a compound of the present technology (such as AGX-A). The AGX51 and a compound of the present technology will be provided either in the plugs (25 μg/mg) or by daily ip treatment (30 or 100 mg/kg) for 10 days. Plugs will be harvested on Day 10, fixed and paraffin embedded. Three sections ([…]) of each plug will be stained with an anti-CD31 antibody and counterstained with hematoxylin and eosin stain. CD31-positive microvessels will be counted for one entire cross-section per plug and the average micro-vessel density±SD vessels will be determined. Student's t-test will be used for statistical analysis.

ID1 [4] = molecular target: T1, ID1; test: Knockdown of Id1 in TFK1 cell cultures; type: cell-based; set-up: endogenous in cells; host or cells: TFK1; settings: TFK1, FIG. 21
Excerpt: (§1) Following the methods described herein (see, e.g., Examples 12-13), AGX-A and AGX51 were compared for their ability to mediate Id knockdown in cell cultures. FIG. 21 illustrates side-by-side comparative effects of AGX51 and AGX-A for knockdown of Id1 in TFK1 cell cultures, and FIG. 22 illustrates side-by-side comparative effects of AGX51 and AGX-A for knockdown of Id3 in TFK1 cell cultures.

Id3 = molecular target: T2, Id3 (Homo sapiens, UniProt Q02535); test: Knockdown of Id3 in TFK1 cell cultures; type: cell-based; settings: TFK1, FIG. 22
T2 construct: endogenous in cells; host or cells: TFK1
T2 sequence (Q02535 whole entry): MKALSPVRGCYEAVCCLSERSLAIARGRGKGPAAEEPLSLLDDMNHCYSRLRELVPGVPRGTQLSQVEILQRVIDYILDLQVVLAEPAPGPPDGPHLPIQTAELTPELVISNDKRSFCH
Excerpt: as §1

[5] = test system: cholangiocarcinoma cells (SNU1079, SNU1196); test: AGX-A cyclodextrin formulations on cholangiocarcinoma cells (24 hour cell viability); type: cell-based
Description: To overcome the issue DMSO posed, investigations were performed to develop a formulation that was compatible with AGX-A as well as well-suited for administration.
Ultimately, a particularly efficacious formulation employing 2-hydroxypropyl-β-cyclodextrin (“HPBCD”) was discovered. […] Representative data is illustrated in FIGS. 25A-25B which provide the results of 24 hour cell viability studies for SNU1079 cells and SNU1196 cells, respectively.

| SMILES | concentration at which significant decrease in ID1 protein levels was observed (ID1 [1]) | retinal neovascularization [2] | E protein binding in cell lysates (E protein binding) | new blood vessel formation in Matrigel plugs [3] | Id1 knockdown potency vs AGX51 (ID1 [4]) | Id3 knockdown potency vs AGX51 (Id3) | AGX-A activity against cholangiocarcinoma cells ([5]; aqueous solution with HPBCD, 24 hour) | AGX-A induced cell death ([5]; formulations with sulfobutylether-β-cyclodextrin (CAPTISOL)) |
| --- | --- | --- | --- | --- | --- | --- | --- | --- |
| CCC(=O)N(CCC(c1ccc2c(c1)OCO2)c1ccccc1OC)Cc1ccccc1 (racemic) [AGX51, N-(3-(benzo[d][1,3]dioxol-5-yl)-3-(2-methoxyphenyl)propyl)-N-benzylpropionamide] | 10 µM | significantly reduced retinal neovascularization | small increase in E protein binding | significant protection from new blood vessel formation | – | – | – | – |
| COc1ccccc1C(CCNCc1ccccc1)c1ccc(OC(C)C)cc1 (centres unmarked) [AGX-A, N-benzyl-3-(4-isopropoxyphenyl)-3-(2-methoxyphenyl)propan-1-anine] | – | – | – | – | superior anti-Id1 and anti-Id3 potency compared to AGX51 | superior anti-Id1 and anti-Id3 potency compared to AGX51 | preserving AGX-A activity | neutralized AGX-A induced cell death |

Source: patent US20220356163A1, “SMALL MOLECULE INHIBITORS OF Id PROTEINS” (MEMORIAL SLOAN KETTERING CANCER CENTER, priority 2019, published 2022)
